The numbers were not newly measured in US11766390B2, “Method for dyeing keratinous material, comprising the use of an organosilicon compound, a colored effect pigment and a film-forming polymer II” (Henkel AG & Co. KGaA, priority 2019, dated 2023), which cites them from elsewhere.

Molecules are shown by their SMILES.

The conditions of the data set: for solubility in water: 25° C.

As to `CCN(Cc1cccc(S(=O)(=O)[O-])c1)c1ccc(C(=C2C=CC(=[N+](CC)Cc3cccc(S(=O)(=O)[O-])c3)C=C2)c2ccccc2S(=O)(=O)[O-])cc1.[Na+].[Na+]` [Acid Blue 9], the solubility in water result is “more than 20 % by weight”.

`O=S(=O)([O-])c1ccc(N=Nc2c(O)ccc3ccccc23)cc1.[Na+]` [Acid Orange 7, sodium salt of 4-[(2-hydroxy-1-naphthyl)azo]benzene sulphonate]: the solubility in water entry was “more than 7 g/L”.

For `Nc1cc(S(=O)(=O)[O-])cc2cc(S(=O)(=O)[O-])c(N=Nc3ccccc3)c(O)c12.[Na+].[Na+]` [Acid Red 33, disodium salt of 5-amino-4-hydroxy-3-(phenylazo)-naphthalene-2,7-disulphonate], the solubility in water is on record as 2.5 g/L.

Turning to `O=C([O-])c1c(Cl)c(Cl)c(Cl)c(Cl)c1-c1c2c(Br)cc(=O)c(Br)c-2oc2c(Br)c(O)cc(Br)c12.O=C([O-])c1c(Cl)c(Cl)c(Cl)c(Cl)c1-c1c2c(Br)cc(=O)c(Br)c-2oc2c(Br)c(O)cc(Br)c12.[Na+].[Na+]` [Acid Red 92, disodium salt of 3,4,5,6-tetrachloro-2-(1,4,5,8-tetrabromo-6-hydroxy-3-oxoxanthen-9-yl)benzoic acid], the solubility in water result is on record as “greater than 10 g/L”.

As to `O=C([O-])C1=NN(c2ccc(S(=O)(=O)[O-])cc2)C(=O)C1N=Nc1ccc(S(=O)(=O)[O-])cc1.[Na+].[Na+].[Na+]` (centres unmarked) [Acid Yellow 23, trisodium salt of 4,5-dihydro-5-oxo-1-(4-sulfophenyl)-4-((4-sulfophenyl)azo)-1H-pyrazole-3-carboxylic acid], the “solubility in water (in words)” value (at 25° C.) is listed as “highly soluble”.
